ChEMBL document CHEMBL1128926, “The synthesis of a hematoregulatory agent based on HP-5B containing an effective, achiral cystine replacement” (1996)
Positions of bridges follow the written chain, without caps; N, C: chain ends. Non-standard residues stand in square brackets, D forms with d. Residues, ends and D or L forms follow the SMILES beside them. Chains are numbered I, II in the order given. pGlu = O=C1CC[C@@H](C(=O)O)N1

Experiment: Compound was evaluated for the production of HSF activity from C6.4 stromal cells using a murine CFU-GM assay.
Format: functional, Mus musculus

Row | Structure (SMILES) | HSF activity x10e2 [ml]
1 | NCCCC[C@H](NC(=O)CN(CCCCN(CC(=O)N[C@@H](CCCCN)C(=O)O)C(=O)[C@H](CC(=O)O)NC(=O)[C@H](CCC(=O)O)NC(=O)[C@@H]1CCC(=O)N1)C(=O)[C@H](CC(=O)O)NC(=O)[C@H](CCC(=O)O)NC(=O)[C@@H]1CCC(=O)N1)C(=O)O | 21700
2 | NCCCC[C@H](NC(=O)[C@H](CSSC[C@H](NC(=O)[C@H](CC(=O)O)NC(=O)[C@H](CCC(=O)O)NC(=O)[C@@H]1CCC(=O)N1)C(=O)N[C@@H](CCCCN)C(=O)O)NC(=O)[C@H](CC(=O)O)NC(=O)[C@H](CCC(=O)O)NC(=O)[C@@H]1CCC(=O)N1)C(=O)O (I: [pGlu]EDCK-OH / II: [pGlu]EDCK-OH; disulfide I:4-II:4) | 700
3 | NCCCC[C@H](NC(=O)[C@H](CCCC[C@H](NC(=O)[C@H](CC(=O)O)NC(=O)[C@H](CCC(=O)O)NC(=O)[C@@H]1CCC(=O)N1)C(=O)N[C@@H](CCCCN)C(=O)O)NC(=O)[C@H](CC(=O)O)NC(=O)[C@H](CCC(=O)O)NC(=O)[C@@H]1CCC(=O)N1)C(=O)O [GLASPIMOD] | 14300
